According to patent publication US20260250277A1, “HYDRAZINO GROUP-CONTAINING COMPOUND” (CHIA TAI TIANQING PHARMACEUTICAL GROUP CO., LTD., priority 2022, published 2026):
Where two headings read alike, the source gives them in different places.

Experiments:
ATM kinase = ATM kinase (Homo sapiens, UniProt Q13315); experiment: Inhibitory activity against ATM kinase (p53 substrate, HTRF); type: biochemical
Method: (§1) ATM kinase solution (concentration: 25 ng/μL) was added to assay wells at 6 μL/well, and different compounds dissolved in DMSO were added to the assay wells separately using a nanoliter pipettor, such that the final concentrations of the compounds were 10000 nM to 2.44 nM. In this experiment, the wells were set in duplicate, and a control well was set. After incubation of the above system for 30 min at room temperature, ATP (100 μM) was mixed with p53 substrate (50 nM) at a ratio of 1:1, and the mixture was added at 4 μL/well. The resulting mixture was left to react at room temperature for 2 h, and then 5 μL of EDTA was added to terminate the reaction, followed by addition of 5 μL of detection antibodies, Mab Anti-phospho p53 and Mab Anti GST-d2 (manufacturer: perkinelmer). The mixture was incubated at room temperature for 1 h. The plate was read using a PerkinElmer Envision multifunctional microplate reader (excitation: 320 nm, emission: 620 nm/665 nm), and IC50 was calculated by four-parameter fitting.

[1] = target: ATR/ATPIP (ATR-interacting protein) kinase (Homo sapiens, UniProt Q13535); experiment: Inhibitory activity against ATR kinase (p53 substrate, HTRF); type: biochemical
Method: as §1, with “ATR/ATPIP (ATR-interacting protein)” for “ATM”, “50” for “25”, “(5” for “(100”

[2] = target: DNA-PK (DNA-dependent protein kinase) (Homo sapiens, UniProt P78527); experiment: Inhibitory activity against DNA-PK (p53 substrate, HTRF); type: biochemical
Method: as §1, with “DNA-PK” for “ATM”, “0.15” for “25”

[3] = system: CHK2 phosphorylation of NCI-H2228 cells; experiment: Inhibitory activity against CHK2 phosphorylation of NCI-H2228 cells (p-CHK2 Thr68 AlphaLISA); type: cell-based; conditions: Homo sapiens
Method: NCI-H2228 cells in a good growth state were collected, added to a centrifuge tube, adjusted to a cell density of 1.25×10^6 cells/mL, and seeded in a 384-well plate (8 μL/well). The cells were equilibrated in a cell incubator for 1.5 h, and then compounds were added using a nanoliter pipettor, such that the final concentrations of the compounds were 200 nM to 0.049 nM. In this experiment, the wells were set in duplicate, and a control well was set. After the mixture was further cultured for 1 h in the cell incubator, an assay was performed using a p-CHK2 (Thr68) assay kit (manufacturer: perkinelmer) and the Envision microplate reader AlphaLISA program. A four-parameter analysis was performed, a dose-response curve was fit, and IC50 was calculated.

[4] = In vivo pharmacokinetics (Table 4); conditions: for AUC(0-inf) / AUC(0-t) / half-life / MRT last / Vd / Cmax / Tmax: plasma; for MRT last: read-out: MRT(0-t); for Vd: read-out: Vz

Sequence of ATR/ATPIP (ATR-interacting protein) kinase (Q13535 whole entry): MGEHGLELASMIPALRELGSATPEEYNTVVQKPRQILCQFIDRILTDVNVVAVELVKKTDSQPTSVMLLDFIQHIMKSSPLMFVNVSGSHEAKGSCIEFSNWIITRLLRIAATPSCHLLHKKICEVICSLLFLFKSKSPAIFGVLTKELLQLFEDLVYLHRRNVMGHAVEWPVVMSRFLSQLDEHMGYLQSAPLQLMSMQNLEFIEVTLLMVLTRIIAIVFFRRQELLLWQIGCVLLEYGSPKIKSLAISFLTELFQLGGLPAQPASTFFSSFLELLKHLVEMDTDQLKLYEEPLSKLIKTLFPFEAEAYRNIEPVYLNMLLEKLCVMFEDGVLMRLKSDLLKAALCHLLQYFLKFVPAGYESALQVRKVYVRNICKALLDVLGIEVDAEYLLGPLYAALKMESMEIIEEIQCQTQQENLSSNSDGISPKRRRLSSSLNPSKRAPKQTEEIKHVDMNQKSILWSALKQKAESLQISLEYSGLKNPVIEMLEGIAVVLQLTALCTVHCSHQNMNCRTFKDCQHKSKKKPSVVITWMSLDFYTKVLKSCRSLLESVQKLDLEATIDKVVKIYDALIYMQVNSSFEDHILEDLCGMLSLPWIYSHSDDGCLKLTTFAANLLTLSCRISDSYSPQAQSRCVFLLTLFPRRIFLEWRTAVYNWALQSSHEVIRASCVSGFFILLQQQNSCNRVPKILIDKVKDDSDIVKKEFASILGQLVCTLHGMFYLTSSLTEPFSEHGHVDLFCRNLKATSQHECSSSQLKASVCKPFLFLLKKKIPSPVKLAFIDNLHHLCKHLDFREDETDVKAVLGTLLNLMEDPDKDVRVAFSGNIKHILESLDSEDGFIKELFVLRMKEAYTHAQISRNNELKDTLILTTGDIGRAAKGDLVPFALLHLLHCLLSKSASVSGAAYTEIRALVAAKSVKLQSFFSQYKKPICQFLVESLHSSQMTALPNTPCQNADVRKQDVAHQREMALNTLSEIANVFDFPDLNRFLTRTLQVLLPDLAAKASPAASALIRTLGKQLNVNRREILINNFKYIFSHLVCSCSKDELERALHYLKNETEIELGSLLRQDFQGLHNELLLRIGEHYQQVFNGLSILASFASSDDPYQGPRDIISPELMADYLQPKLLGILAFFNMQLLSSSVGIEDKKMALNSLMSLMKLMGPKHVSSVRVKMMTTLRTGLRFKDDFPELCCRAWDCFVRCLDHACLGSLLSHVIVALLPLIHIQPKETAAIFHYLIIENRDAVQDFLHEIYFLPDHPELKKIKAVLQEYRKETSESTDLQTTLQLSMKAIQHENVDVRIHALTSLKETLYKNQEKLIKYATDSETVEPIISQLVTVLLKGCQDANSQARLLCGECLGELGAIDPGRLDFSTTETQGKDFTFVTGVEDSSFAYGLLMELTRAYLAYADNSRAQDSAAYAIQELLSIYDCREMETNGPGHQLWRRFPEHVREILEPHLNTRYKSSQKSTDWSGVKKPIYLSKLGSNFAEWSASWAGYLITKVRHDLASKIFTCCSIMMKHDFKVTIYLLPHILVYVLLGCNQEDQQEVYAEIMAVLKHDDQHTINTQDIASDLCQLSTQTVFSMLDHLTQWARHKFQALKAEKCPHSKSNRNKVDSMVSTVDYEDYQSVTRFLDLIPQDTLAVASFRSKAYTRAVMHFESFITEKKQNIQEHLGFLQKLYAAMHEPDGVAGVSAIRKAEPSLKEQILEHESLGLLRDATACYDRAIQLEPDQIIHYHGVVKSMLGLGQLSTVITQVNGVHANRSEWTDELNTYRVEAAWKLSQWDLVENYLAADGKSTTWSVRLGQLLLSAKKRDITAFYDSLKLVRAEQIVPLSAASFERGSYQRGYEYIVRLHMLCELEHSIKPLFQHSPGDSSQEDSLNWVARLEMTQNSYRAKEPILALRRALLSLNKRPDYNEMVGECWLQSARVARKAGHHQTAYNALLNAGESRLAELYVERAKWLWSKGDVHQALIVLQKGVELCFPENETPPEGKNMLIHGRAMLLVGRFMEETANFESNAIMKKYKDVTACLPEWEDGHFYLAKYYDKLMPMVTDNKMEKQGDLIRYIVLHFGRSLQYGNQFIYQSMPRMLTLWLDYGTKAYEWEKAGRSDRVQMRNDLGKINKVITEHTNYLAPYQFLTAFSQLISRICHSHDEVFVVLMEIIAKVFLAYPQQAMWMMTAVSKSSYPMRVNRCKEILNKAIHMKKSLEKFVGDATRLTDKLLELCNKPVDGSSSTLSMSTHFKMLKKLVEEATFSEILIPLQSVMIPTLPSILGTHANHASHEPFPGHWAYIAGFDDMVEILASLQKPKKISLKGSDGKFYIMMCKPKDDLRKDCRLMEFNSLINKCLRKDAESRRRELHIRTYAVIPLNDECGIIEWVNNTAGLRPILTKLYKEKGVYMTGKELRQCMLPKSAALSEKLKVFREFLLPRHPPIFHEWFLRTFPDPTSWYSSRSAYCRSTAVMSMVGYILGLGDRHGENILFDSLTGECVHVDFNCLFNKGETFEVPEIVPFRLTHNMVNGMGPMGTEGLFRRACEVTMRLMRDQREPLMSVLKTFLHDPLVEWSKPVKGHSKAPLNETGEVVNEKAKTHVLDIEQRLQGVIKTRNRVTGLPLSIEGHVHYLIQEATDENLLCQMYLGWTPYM
Sequence of ATR/ATPIP (ATR-interacting protein) kinase (Q8WXE1 whole entry partner): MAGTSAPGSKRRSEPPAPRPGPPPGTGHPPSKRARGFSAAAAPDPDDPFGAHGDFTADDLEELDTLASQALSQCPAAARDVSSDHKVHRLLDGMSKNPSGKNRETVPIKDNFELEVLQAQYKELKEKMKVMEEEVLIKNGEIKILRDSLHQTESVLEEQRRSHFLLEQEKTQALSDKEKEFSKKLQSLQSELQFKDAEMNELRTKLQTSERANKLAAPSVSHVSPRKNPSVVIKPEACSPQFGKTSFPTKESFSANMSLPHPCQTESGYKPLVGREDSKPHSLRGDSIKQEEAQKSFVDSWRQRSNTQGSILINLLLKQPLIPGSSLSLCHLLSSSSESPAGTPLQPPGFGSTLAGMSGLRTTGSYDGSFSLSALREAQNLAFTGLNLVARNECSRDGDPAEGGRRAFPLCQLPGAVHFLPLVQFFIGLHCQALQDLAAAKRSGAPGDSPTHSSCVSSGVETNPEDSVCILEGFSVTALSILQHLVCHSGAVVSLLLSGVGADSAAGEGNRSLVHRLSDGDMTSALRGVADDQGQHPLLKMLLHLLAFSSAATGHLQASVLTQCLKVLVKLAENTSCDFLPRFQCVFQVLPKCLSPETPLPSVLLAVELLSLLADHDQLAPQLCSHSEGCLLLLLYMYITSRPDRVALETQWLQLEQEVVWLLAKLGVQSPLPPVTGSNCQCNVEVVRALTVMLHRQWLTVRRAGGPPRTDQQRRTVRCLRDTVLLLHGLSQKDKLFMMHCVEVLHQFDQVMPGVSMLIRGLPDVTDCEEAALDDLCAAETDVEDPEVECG

Compound | IC50 (ATM kinase) [nM] | IC50 [1] [nM] | IC50 [2] [nM] | IC50 [3] [nM] | other results
CC(C)n1c(=O)n(N)c2cnc3cc(F)c(-c4ccc(OCCCN(C5CC5)C5CC5)nc4)cc3c21 [Example 4] | < 50 | > 1000 | > 1000 |  | 
Nn1c(=O)n(C2CCOCC2)c2c3cc(-c4ccc(OCCCN5CCCC5)nc4)c(F)cc3ncc21 [Example 5] | < 50 | > 1000 | > 1000 | < 50 | 
CNn1c(=O)n(C(C)C)c2c3cc(-c4ccc(OCCCN5CCCCC5)nc4)c(F)cc3ncc21 [Example 7] | < 50 | > 1000 | > 1000 | < 50 | 
[2H]C([2H])([2H])Nn1c(=O)n(C(C)C)c2c3cc(-c4ccc(OCCCN5CCCCC5)nc4)c(F)cc3ncc21 [Example 8] | < 50 | > 1000 | > 1000 |  | 
COc1cc2ncc3c(c2cc1-c1ccc(OCCCN2CCCC2)nc1)n(C1CC1)c(=O)n3N [Example 11] | < 50 | > 1000 | > 1000 | < 50 | 
COC1CCC(n2c(=O)n(N)c3cnc4cc(F)c(-c5ccc(OCCCN6CCCCC6)nc5)cc4c32)C1 (stereo not drawn) [Example 12] | < 50 | > 1000 | > 1000 |  | 
COC1CCC(n2c(=O)n(N)c3cnc4cc(F)c(-c5ccc(OCCCN6CCCC6)nc5)cc4c32)C1 (stereo not drawn) [Example 13] | < 50 | > 1000 | > 1000 | < 50 | 
COC1CCC(n2c(=O)n(N)c3cnc4cc(F)c(-c5ccc(OCCCN(C)C)nc5)cc4c32)C1 (stereo not drawn) [Example 14] | < 50 | > 1000 | > 1000 | < 50 | 
Nn1c(=O)n(C2CCOCC2)c2c3cc(-c4ccc(OCCCN5CCCCC5)nc4)c(F)cc3ncc21 [Example 15] | < 50 | > 1000 | > 1000 |  | 
COc1cc2ncc3c(c2cc1-c1ccc(OCCCN2CCCCC2)nc1)n(C(C)C)c(=O)n3N [Example 16] | < 50 | > 1000 | > 1000 |  | 
COC1CC(n2c(=O)n(N)c3cnc4cc(F)c(-c5ccc(OCCCN(C)C)nc5)cc4c32)C1 (stereo not drawn) [Example 21] | < 50 | > 1000 | > 1000 | < 50 | 
CC(C)n1c(=O)n(N)c2cnc3cc(F)c(-c4ccc(OCCCN5CC(F)C5)nc4)cc3c21 [Example 23] | < 50 |  | > 1000 | < 50 | 
CC(C)n1c(=O)n(N)c2cnc3cc(F)c(-c4ccc(OCCCN5CCC(F)(F)C5)nc4)cc3c21 [Example 26] | < 50 |  | > 1000 | < 50 | 
CC(C)n1c(=O)n(N)c2cnc3cc(F)c(-c4ccc(OCCCN5C6CCC5CC6)nc4)cc3c21 [Example 27] | < 50 |  | > 1000 | < 50 | Absolute F ([4]; IG 10 mg/kg vs IV 1 mg/kg): 115.39%; CLz ([4]; IV, 1 mg/kg): 59.7 mL/min/kg; AUC(0-inf) ([4]; iv, 1 mg/kg): 280 ng·h/mL; AUC(0-t) ([4]; iv, 1 mg/kg): 271 ng·h/mL; half-life ([4]; iv, 1 mg/kg): 1.87 h; MRT last ([4]; iv, 1 mg/kg): 1.43 h; Vd ([4]; iv, 1 mg/kg): 6.11 L/kg; AUC(0-inf) ([4]; po, IG, 10 mg/kg): 3190 ng·h/mL; AUC(0-t) ([4]; po, IG, 10 mg/kg): 3130 ng·h/mL; Cmax ([4]; po, IG, 10 mg/kg): 342 ng/mL; Tmax ([4]; po, IG, 10 mg/kg): 2 h; half-life ([4]; po, IG, 10 mg/kg): 4.12 h; MRT last ([4]; po, IG, 10 mg/kg): 5.7 h
CC(C)n1c(=O)n(N)c2cnc3cc(F)c(-c4ccc(OCCCN5CC(CF)C5)nc4)cc3c21 [Example 28] | < 50 |  | > 1000 | < 50 | AUC(0-inf) ([4]; iv, 1 mg/kg): 2240 ng·h/mL; AUC(0-t) ([4]; iv, 1 mg/kg): 2230 ng·h/mL; half-life ([4]; iv, 1 mg/kg): 3.1 h; MRT last ([4]; iv, 1 mg/kg): 3.24 h; Vd ([4]; iv, 1 mg/kg): 1.5 L/kg; AUC(0-inf) ([4]; po, IG, 10 mg/kg): 17300 ng·h/mL; AUC(0-t) ([4]; po, IG, 10 mg/kg): 17200 ng·h/mL; Cmax ([4]; po, IG, 10 mg/kg): 1630 ng/mL; Tmax ([4]; po, IG, 10 mg/kg): 4 h; half-life ([4]; po, IG, 10 mg/kg): 3.04 h; MRT last ([4]; po, IG, 10 mg/kg): 5.56 h
CC(C)n1c(=O)n(N)c2cnc3cc(F)c(-c4ccc(OCCCN5CC6(CCC6)C5)nc4)cc3c21 [Example 29] | < 50 |  | > 1000 | < 50 | AUC(0-inf) ([4]; iv, 1 mg/kg): 3160 ng·h/mL; AUC(0-t) ([4]; iv, 1 mg/kg): 3140 ng·h/mL; half-life ([4]; iv, 1 mg/kg): 3.22 h; MRT last ([4]; iv, 1 mg/kg): 3.29 h; Vd ([4]; iv, 1 mg/kg): 1.09 L/kg; AUC(0-inf) ([4]; po, IG, 10 mg/kg): 27300 ng·h/mL; AUC(0-t) ([4]; po, IG, 10 mg/kg): 27000 ng·h/mL; Cmax ([4]; po, IG, 10 mg/kg): 2300 ng/mL; Tmax ([4]; po, IG, 10 mg/kg): 4 h; half-life ([4]; po, IG, 10 mg/kg): 3.51 h; MRT last ([4]; po, IG, 10 mg/kg): 5.99 h
COc1cc2ncc3c(c2cc1-c1ccc(OCCCN2CCCCC2)nc1)n(-c1c(F)cncc1OC)c(=O)n3N [Example 30] | < 50 | 8090 | > 10000 |  | 
COc1cc2ncc3c(c2cc1-c1ccc(OCCCN2CCCC2)nc1)n(-c1c(F)cncc1OC)c(=O)n3N [Example 31] | < 50 | 8720 | > 10000 | < 50 | 
CNn1c(=O)n(C(C)C)c2c3cc(-c4ccc(OCCCN5CCCCC5)nc4)c(F)cc3nnc21 [Example 33] | < 50 | > 10000 | > 10000 |  | 
CC(C)n1c(=O)n(N)c2nnc3cc(F)c(-c4ccc(OCCCN5CCCC5)nc4)cc3c21 [Example 34] | < 50 | > 10000 | > 10000 |  | 
CNn1c(=O)n(C(C)C)c2c3cc(-c4ccc(OCCCN5CCCC5)nc4)c(F)cc3nnc21 [Example 35] | < 50 | > 10000 | > 10000 |  | 

More lines, main results first:

IC50 (ATM kinase) [nM] | IC50 [1] [nM] | IC50 [2] [nM] | IC50 [3] [nM] | Compound | other results
< 50 | 289 | > 1000 |  | CC(C)n1c(=O)n(N)c2cnc3ccc(-c4ccc(OCCCN5CCCCC5)nc4)cc3c21 [Example 1] | 
< 50 | > 1000 | > 1000 |  | Nn1c(=O)n(C2CCOCC2)c2c3cc(-c4ccc(OCCCN(C5CC5)C5CC5)nc4)c(F)cc3ncc21 [Example 6] | 
< 50 | > 1000 | > 1000 |  | COc1cc2ncc3c(c2cc1-c1ccc(OCCCN2CCCCC2)nc1)n(C1CC1)c(=O)n3N [Example 10] | 
< 50 | > 1000 | > 1000 | < 50 | COc1cc2ncc3c(c2cc1-c1ccc(OCCCN2CCCC2)nc1)n(C(C)C)c(=O)n3N [Example 17] | 
< 50 | > 1000 | > 1000 | < 50 | COC1CC(n2c(=O)n(N)c3cnc4cc(F)c(-c5ccc(OCCCN6CCCCC6)nc5)cc4c32)C1 (stereo not drawn) [Example 20] | 
< 50 |  | > 1000 | < 50 | CC(C)n1c(=O)n(N)c2cnc3cc(F)c(-c4ccc(OCC5CC(N6CCCC6)C5)nc4)cc3c21 (stereo not drawn) [Example 22] | 
< 50 |  | > 1000 | < 50 | CC(C)n1c(=O)n(N)c2cnc3cc(F)c(-c4ccc(OCCCN5CC(F)(F)C5)nc4)cc3c21 [Example 24] | 
< 50 |  | > 1000 | < 50 | CC(C)n1c(=O)n(N)c2cnc3cc(F)c(-c4ccc(OCCCN5CCC(CF)C5)nc4)cc3c21 (stereo not drawn) [Example 25] | 
 |  |  | < 50 | CC(C)n1c(=O)n(N)c2nnc3cc(F)c(-c4ccc(OCCCN5CCCCC5)nc4)cc3c21 [Example 32] | 
< 50 | > 10000 | > 10000 |  | Nn1c(=O)n(C2CC2)c2c3cc(-c4ccc(OCCCN5CCCCC5)nc4)c(F)cc3nnc21 [Example 36] | 
< 50 | > 10000 | > 10000 |  | Nn1c(=O)n(C2CC2)c2c3cc(-c4ccc(OCCCN5CCCC5)nc4)c(F)cc3nnc21 [Example 37] | 
